{"source": "paper PMC10682951", "about": "“Structure-function and rational design of a spider toxin Ssp1a at human voltage-gated sodium channel subtypes” (Frontiers in Pharmacology, 2023)", "assay_type_in_all_cases": "cell-based", "key": {"hNaV1.2": {"biological_target": "T1, hNaV1.2 (Homo sapiens, UniProt Q99250)", "T1 construct": "host or cells: HEK293", "T1 sequence (Q07699 19-218)": "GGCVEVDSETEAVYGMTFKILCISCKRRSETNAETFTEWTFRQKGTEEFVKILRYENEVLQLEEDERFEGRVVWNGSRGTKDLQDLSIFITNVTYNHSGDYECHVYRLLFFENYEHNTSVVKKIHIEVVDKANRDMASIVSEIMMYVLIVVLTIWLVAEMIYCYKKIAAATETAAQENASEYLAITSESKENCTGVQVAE", "T1 sequence (Q99250 whole entry)": "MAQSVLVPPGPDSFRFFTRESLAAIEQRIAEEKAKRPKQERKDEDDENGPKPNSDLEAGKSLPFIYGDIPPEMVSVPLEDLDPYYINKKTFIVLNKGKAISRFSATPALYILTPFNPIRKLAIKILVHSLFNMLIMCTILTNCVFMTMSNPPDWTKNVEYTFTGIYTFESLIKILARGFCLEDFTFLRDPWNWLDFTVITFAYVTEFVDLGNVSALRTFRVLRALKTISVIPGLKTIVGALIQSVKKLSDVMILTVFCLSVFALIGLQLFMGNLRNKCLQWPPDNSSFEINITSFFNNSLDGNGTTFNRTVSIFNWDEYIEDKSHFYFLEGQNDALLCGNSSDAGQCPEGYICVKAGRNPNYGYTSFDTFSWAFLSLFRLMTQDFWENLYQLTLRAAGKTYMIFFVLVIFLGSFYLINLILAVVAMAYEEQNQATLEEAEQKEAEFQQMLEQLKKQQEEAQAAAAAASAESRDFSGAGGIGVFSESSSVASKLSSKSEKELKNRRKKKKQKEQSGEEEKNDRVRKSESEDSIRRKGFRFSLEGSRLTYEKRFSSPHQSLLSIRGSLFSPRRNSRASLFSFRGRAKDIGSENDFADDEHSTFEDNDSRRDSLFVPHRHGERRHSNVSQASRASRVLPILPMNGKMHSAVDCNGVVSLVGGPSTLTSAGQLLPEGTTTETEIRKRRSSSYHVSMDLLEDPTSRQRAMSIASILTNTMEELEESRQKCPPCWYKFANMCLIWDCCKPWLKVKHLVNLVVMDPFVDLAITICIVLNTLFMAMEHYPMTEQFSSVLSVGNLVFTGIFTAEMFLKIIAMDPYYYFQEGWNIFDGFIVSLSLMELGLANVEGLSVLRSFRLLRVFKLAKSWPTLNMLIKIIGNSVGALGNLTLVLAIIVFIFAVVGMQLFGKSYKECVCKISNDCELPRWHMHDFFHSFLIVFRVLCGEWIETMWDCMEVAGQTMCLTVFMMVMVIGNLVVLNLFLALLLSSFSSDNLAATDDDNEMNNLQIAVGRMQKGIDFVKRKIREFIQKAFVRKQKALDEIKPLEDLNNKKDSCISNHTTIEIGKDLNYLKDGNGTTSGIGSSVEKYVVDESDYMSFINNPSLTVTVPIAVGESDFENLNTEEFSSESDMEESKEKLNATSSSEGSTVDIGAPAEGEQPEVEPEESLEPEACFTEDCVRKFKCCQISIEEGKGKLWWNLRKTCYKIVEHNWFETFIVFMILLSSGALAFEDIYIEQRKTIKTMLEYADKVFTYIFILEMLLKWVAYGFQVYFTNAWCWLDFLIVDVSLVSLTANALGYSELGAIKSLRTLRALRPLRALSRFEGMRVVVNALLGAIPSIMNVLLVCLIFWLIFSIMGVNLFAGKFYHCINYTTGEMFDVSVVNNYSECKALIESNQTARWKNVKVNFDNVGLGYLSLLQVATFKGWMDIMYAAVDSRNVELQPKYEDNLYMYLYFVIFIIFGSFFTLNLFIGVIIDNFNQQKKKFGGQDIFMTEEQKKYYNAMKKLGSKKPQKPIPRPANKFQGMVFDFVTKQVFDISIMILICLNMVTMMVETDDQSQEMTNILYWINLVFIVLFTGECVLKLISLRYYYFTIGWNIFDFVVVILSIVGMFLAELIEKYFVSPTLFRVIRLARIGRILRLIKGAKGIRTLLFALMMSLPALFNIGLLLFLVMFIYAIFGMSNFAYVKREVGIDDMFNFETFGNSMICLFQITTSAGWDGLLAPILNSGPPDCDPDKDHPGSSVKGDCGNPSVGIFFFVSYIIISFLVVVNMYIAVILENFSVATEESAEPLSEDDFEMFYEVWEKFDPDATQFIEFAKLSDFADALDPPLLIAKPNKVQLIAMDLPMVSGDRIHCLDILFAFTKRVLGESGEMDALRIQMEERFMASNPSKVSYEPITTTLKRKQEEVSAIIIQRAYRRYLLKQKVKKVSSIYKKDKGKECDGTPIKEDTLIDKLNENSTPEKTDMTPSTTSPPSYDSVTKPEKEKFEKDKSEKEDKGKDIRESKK", "experiment": "Automated whole-cell patch-clamp (QPatch 16X), hNaV1.2", "settings": "for pIC50: HEK293 cells expressing hNaV1.2 + β1 subunit, QPatch 16X, holding −80 mV, step to 0 mV, peptide incubated 2 min, 0.1% BSA, mean, SEM and n (2-7)", "how_it_was_run": "(§1)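 HEK293 cells stably expressing the channel (human subtypes with β1 subunit), held at −80 mV; 2 min peptide pre-incubation, then 20 ms steps to 0 mV after a 200 ms −120 mV conditioning pulse. Extracellular pH 7.3 with 20 mM TEA-Cl, CsF-based pipette solution, 0.1% BSA; IC50 from four-parameter Hill fit.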"}, "hNaV1.3": {"biological_target": "T2, hNaV1.3 (Homo sapiens, UniProt Q9NY46)", "T2 construct": "host or cells: HEK293", "experiment": "Automated whole-cell patch-clamp (QPatch 16X), hNaV1.3", "settings": "HEK293 cells expressing hNaV1.3 + β1 subunit; QPatch 16X; holding −80 mV, step to 0 mV; peptide incubated 2 min; 0.1% BSA; mean, SEM and n (3-12)", "how_it_was_run": "as §1"}, "hNaV1.7": {"biological_target": "T3, hNaV1.7 (Homo sapiens, UniProt Q15858)", "T3 construct": "host or cells: HEK293", "T3 sequence (Q15858 whole entry)": "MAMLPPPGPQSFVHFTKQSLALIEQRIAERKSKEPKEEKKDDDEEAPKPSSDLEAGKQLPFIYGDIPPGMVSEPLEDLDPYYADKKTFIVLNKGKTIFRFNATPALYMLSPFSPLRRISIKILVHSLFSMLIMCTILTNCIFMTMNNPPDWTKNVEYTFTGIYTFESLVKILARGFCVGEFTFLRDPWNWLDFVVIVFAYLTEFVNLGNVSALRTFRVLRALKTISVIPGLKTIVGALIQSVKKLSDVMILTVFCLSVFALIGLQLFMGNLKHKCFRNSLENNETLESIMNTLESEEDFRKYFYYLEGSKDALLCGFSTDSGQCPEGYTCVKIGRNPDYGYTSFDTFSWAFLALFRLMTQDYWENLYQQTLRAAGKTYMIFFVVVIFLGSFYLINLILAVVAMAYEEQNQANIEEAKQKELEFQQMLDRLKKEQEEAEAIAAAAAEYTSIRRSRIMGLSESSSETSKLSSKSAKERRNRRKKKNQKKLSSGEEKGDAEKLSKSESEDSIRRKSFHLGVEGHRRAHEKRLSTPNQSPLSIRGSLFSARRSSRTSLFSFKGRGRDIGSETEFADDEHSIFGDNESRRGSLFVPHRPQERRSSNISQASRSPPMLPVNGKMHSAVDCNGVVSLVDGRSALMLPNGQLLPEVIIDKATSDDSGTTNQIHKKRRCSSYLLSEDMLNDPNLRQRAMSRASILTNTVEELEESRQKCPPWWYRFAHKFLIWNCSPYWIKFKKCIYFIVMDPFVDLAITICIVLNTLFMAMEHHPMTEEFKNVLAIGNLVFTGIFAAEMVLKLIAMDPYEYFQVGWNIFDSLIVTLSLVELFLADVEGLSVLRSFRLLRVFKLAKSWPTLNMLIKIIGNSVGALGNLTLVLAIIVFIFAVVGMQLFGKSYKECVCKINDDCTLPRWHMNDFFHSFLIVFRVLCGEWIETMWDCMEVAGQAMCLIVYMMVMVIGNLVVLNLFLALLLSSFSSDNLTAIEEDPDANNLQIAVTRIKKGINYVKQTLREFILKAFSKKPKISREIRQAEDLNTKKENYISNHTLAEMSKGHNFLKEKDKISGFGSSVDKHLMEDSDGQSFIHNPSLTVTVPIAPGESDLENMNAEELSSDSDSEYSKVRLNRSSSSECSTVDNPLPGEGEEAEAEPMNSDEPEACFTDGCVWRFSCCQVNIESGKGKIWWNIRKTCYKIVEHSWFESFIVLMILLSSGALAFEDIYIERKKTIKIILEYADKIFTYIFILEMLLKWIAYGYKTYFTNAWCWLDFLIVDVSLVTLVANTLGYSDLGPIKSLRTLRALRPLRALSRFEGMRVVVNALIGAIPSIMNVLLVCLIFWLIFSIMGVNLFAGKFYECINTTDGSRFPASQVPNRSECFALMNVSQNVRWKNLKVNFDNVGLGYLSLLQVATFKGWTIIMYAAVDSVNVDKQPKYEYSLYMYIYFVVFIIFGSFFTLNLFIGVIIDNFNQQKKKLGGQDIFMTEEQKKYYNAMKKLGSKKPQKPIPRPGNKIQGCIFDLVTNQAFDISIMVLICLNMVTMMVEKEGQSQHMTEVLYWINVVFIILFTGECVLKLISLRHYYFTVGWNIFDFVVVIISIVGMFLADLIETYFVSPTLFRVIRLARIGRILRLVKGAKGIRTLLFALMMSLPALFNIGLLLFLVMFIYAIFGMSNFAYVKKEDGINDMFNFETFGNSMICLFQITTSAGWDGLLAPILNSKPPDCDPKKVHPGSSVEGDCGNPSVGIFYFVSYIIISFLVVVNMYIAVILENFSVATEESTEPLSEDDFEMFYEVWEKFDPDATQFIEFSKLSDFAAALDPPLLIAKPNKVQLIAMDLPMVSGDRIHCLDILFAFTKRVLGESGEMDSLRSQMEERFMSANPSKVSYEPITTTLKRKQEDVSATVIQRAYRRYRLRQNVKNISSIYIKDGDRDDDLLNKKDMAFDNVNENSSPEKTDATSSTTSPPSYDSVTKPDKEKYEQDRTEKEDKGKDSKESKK", "T3 sequence (Q07699 19-218, further chain)": "as the sequence (Q07699 19-218) above", "experiment": "Automated whole-cell patch-clamp (QPatch 16X), hNaV1.7", "settings": "for pIC50: HEK293 cells expressing hNaV1.7 + β1 subunit, QPatch 16X, holding −80 mV, step to 0 mV, peptide incubated 2 min, 0.1% BSA, mean, SEM and n (3-9)", "how_it_was_run": "as §1"}}, "note": "pIC50: −log10 of the molar value. Bridge positions count the residues as written; N and C are the ends. Peptide text beside a SMILES is read from it."}
{"smiles": "CC(C)C[C@H](NC(=O)[C@H](CC(=O)O)NC(=O)[C@H](Cc1ccc(O)cc1)NC(=O)[C@H](CCCNC(=N)N)NC(=O)[C@@H]1CSSC[C@@H]2NC(=O)[C@H](CCCCN)NC(=O)[C@H](CC(N)=O)NC(=O)[C@H](CC(N)=O)NC(=O)[C@H](CC(N)=O)NC(=O)[C@@H]3CCCN3C(=O)[C@H](CC(=O)O)NC(=O)[C@@H]3CSSC[C@H](NC(=O)[C@H](C(C)C)NC(=O)[C@H](Cc4ccc(O)cc4)NC(=O)CNC(=O)[C@H](CCC(=O)O)NC(=O)[C@H](CSSC[C@H](NC(=O)[C@H](CC(=O)O)NC(=O)CN)C(=O)N[C@@H](CC(C)C)C(=O)NCC(=O)N[C@@H](Cc4c[nH]c5ccccc45)C(=O)N[C@@H](Cc4ccccc4)C(=O)N[C@@H](CO)C(=O)NCC(=O)N3)NC2=O)C(=O)N[C@@H](Cc2c[nH]cn2)C(=O)N[C@@H](Cc2c[nH]c3ccccc23)C(=O)N[C@@H](CCCCN)C(=O)N[C@@H](C)C(=O)N2CCC[C@H]2C(=O)N[C@@H](Cc2c[nH]c3ccccc23)C(=O)N1)C(=O)O", "note": "[Y26A] (H-GDCLGWFSGCDPNNNKCCEGYVCHWKAPWCRYDL-OH; disulfide 3-18, 10-23, 17-30 (inferred); N-terminus and C-terminus assumed)", "values": [{"measurement": "pIC50", "setting": "hNaV1.2", "result": "< 6.00"}, {"measurement": "Loss (reduction) in potency vs rSsp1a at hNaV1.2", "setting": "hNaV1.2; relative to wild type rSsp1a", "result": "≥ 10", "unit": "fold"}, {"measurement": "pIC50", "setting": "hNaV1.3", "result": "< 6.00"}, {"measurement": "pIC50", "setting": "hNaV1.7", "result": "< 6.00"}, {"measurement": "Loss (reduction) in potency vs rSsp1a at hNaV1.7", "setting": "hNaV1.7; relative to wild type rSsp1a", "result": "≥ 10", "unit": "fold"}]}
{"smiles": "CC(C)C[C@H](NC(=O)[C@H](CC(=O)O)NC(=O)[C@H](Cc1ccc(O)cc1)NC(=O)[C@H](CCCNC(=N)N)NC(=O)[C@@H]1CSSC[C@@H]2NC(=O)[C@H](CCCCN)NC(=O)[C@H](CC(N)=O)NC(=O)[C@H](CC(N)=O)NC(=O)[C@H](CC(N)=O)NC(=O)[C@@H]3CCCN3C(=O)[C@H](CC(=O)O)NC(=O)[C@@H]3CSSC[C@H](NC(=O)[C@H](C(C)C)NC(=O)[C@H](Cc4ccc(O)cc4)NC(=O)CNC(=O)[C@H](CCC(=O)O)NC(=O)[C@H](CSSC[C@H](NC(=O)[C@H](CC(=O)O)NC(=O)CN)C(=O)N[C@@H](CC(C)C)C(=O)NCC(=O)N[C@@H](Cc4c[nH]c5ccccc45)C(=O)N[C@@H](Cc4ccccc4)C(=O)N[C@@H](CO)C(=O)NCC(=O)N3)NC2=O)C(=O)N[C@@H](Cc2c[nH]cn2)C(=O)N[C@@H](Cc2c[nH]c3ccccc23)C(=O)N[C@@H](CCCCN)C(=O)N[C@@H](Cc2c[nH]cn2)C(=O)N2CCC[C@H]2C(=O)N[C@@H](Cc2c[nH]c3ccccc23)C(=O)N1)C(=O)O", "note": "[Y26H]", "values": [{"measurement": "pIC50", "setting": "hNaV1.2", "result": 6.43}, {"measurement": "pIC50", "setting": "hNaV1.3", "result": 6.32}, {"measurement": "pIC50", "setting": "hNaV1.7", "result": 6.61}]}
{"smiles": "CC(C)C[C@H](NC(=O)[C@H](CC(=O)O)NC(=O)[C@H](C)NC(=O)[C@H](CCCNC(=N)N)NC(=O)[C@@H]1CSSC[C@@H]2NC(=O)[C@H](CCCCN)NC(=O)[C@H](CC(N)=O)NC(=O)[C@H](CC(N)=O)NC(=O)[C@H](CC(N)=O)NC(=O)[C@@H]3CCCN3C(=O)[C@H](CC(=O)O)NC(=O)[C@@H]3CSSC[C@H](NC(=O)[C@H](C(C)C)NC(=O)[C@H](Cc4ccc(O)cc4)NC(=O)CNC(=O)[C@H](CCC(=O)O)NC(=O)[C@H](CSSC[C@H](NC(=O)[C@H](CC(=O)O)NC(=O)CN)C(=O)N[C@@H](CC(C)C)C(=O)NCC(=O)N[C@@H](Cc4c[nH]c5ccccc45)C(=O)N[C@@H](Cc4ccccc4)C(=O)N[C@@H](CO)C(=O)NCC(=O)N3)NC2=O)C(=O)N[C@@H](Cc2c[nH]cn2)C(=O)N[C@@H](Cc2c[nH]c3ccccc23)C(=O)N[C@@H](CCCCN)C(=O)N[C@@H](Cc2ccc(O)cc2)C(=O)N2CCC[C@H]2C(=O)N[C@@H](Cc2c[nH]c3ccccc23)C(=O)N1)C(=O)O", "note": "[Y31A]", "values": [{"measurement": "pIC50", "setting": "hNaV1.2", "result": 6.20}, {"measurement": "pIC50", "setting": "hNaV1.3", "result": "< 6.00"}, {"measurement": "pIC50", "setting": "hNaV1.7", "result": 6.60}]}
{"smiles": "CC(C)C[C@H](NC(=O)[C@H](CC(=O)O)NC(=O)[C@@H](NC(=O)[C@H](CCCNC(=N)N)NC(=O)[C@@H]1CSSC[C@@H]2NC(=O)[C@H](CCCCN)NC(=O)[C@H](CC(N)=O)NC(=O)[C@H](CC(N)=O)NC(=O)[C@H](CC(N)=O)NC(=O)[C@@H]3CCCN3C(=O)[C@H](CC(=O)O)NC(=O)[C@@H]3CSSC[C@H](NC(=O)[C@H](C(C)C)NC(=O)[C@H](Cc4ccc(O)cc4)NC(=O)CNC(=O)[C@H](CCC(=O)O)NC(=O)[C@H](CSSC[C@H](NC(=O)[C@H](CC(=O)O)NC(=O)CN)C(=O)N[C@@H](CC(C)C)C(=O)NCC(=O)N[C@@H](Cc4c[nH]c5ccccc45)C(=O)N[C@@H](Cc4ccccc4)C(=O)N[C@@H](CO)C(=O)NCC(=O)N3)NC2=O)C(=O)N[C@@H](Cc2c[nH]cn2)C(=O)N[C@@H](Cc2c[nH]c3ccccc23)C(=O)N[C@@H](CCCCN)C(=O)N[C@@H](Cc2ccc(O)cc2)C(=O)N2CCC[C@H]2C(=O)N[C@@H](Cc2c[nH]c3ccccc23)C(=O)N1)[C@@H](C)O)C(=O)O", "note": "[Y31T]", "values": [{"measurement": "pIC50", "setting": "hNaV1.2", "result": 6.06}, {"measurement": "pIC50", "setting": "hNaV1.3", "result": "< 5.52"}, {"measurement": "pIC50", "setting": "hNaV1.7", "result": 6.26}]}
{"smiles": "CC(C)C[C@H](NC(=O)[C@H](CC(=O)O)NC(=O)[C@H](Cc1c[nH]c2ccccc12)NC(=O)[C@H](CCCNC(=N)N)NC(=O)[C@@H]1CSSC[C@@H]2NC(=O)[C@H](CCCCN)NC(=O)[C@H](CC(N)=O)NC(=O)[C@H](CC(N)=O)NC(=O)[C@H](CC(N)=O)NC(=O)[C@@H]3CCCN3C(=O)[C@H](CC(=O)O)NC(=O)[C@@H]3CSSC[C@H](NC(=O)[C@H](C(C)C)NC(=O)[C@H](Cc4ccc(O)cc4)NC(=O)CNC(=O)[C@H](CCC(=O)O)NC(=O)[C@H](CSSC[C@H](NC(=O)[C@H](CC(=O)O)NC(=O)CN)C(=O)N[C@@H](CC(C)C)C(=O)NCC(=O)N[C@@H](Cc4c[nH]c5ccccc45)C(=O)N[C@@H](Cc4ccccc4)C(=O)N[C@@H](CO)C(=O)NCC(=O)N3)NC2=O)C(=O)N[C@@H](Cc2c[nH]cn2)C(=O)N[C@@H](Cc2c[nH]c3ccccc23)C(=O)N[C@@H](CCCCN)C(=O)N[C@@H](Cc2ccc(O)cc2)C(=O)N2CCC[C@H]2C(=O)N[C@@H](Cc2c[nH]c3ccccc23)C(=O)N1)C(=O)O", "note": "[Y31W]", "values": [{"measurement": "pIC50", "setting": "hNaV1.2", "result": 7.05}, {"measurement": "pIC50", "setting": "hNaV1.3", "result": 6.80}, {"measurement": "pIC50", "setting": "hNaV1.7", "result": 7.10}]}
